The numbers were not newly measured in patent US20180147234A1, “COMPOSITIONS AND METHODS FOR TREATMENT OF FIBROMYALGIA” (Luitpold Pharmaceuticals, Inc., priority 2015, published 2018), which cites them from elsewhere.

The conditions of this series: in vivo.

Turning to “polyglucose sorbitol carboxymethyl ether-coated non-stoichiometric magnetite [ferumoxytol]”, the Blood half-life is 10 to 14 h.
